This test has as its system RKO human colon adenocarcinoma cells (RKOp27 subclone), proliferating. Put plainly: Alamar Blue cell viability assay, RKO p27 uninduced (proliferating). The following applies: RKOp27, 72 h, read-out: −log EC50 [mol/l] RKO p27 uninduced (proliferating), anti-proliferative/cytotoxic activity (converted). (Alamar Blue is a resazurin reagent that responds to reducing activity.)

Method: The anti-proliferative/cytotoxic activity of the compounds described herein can be tested on subclones of RKO human colon adenocarcinoma cells (Schmidt et al., Oncogene 19, 2423-2429; 2000) using the Alamar Blue cell viability assay (described in O'Brien et al. Eur J Biochem 267, 5421-5426, 2000). The compounds are dissolved as 10 mM solutions in DMSO and subsequently diluted in semi-logarithmic steps. DMSO dilutions are further diluted 1:100 into Dulbecco's modified Eagle's medium (DMEM) containing 10% fetal calf serum to a final concentration twice as much as the final concentration in the test. RKO subclones are seeded into 96 well flat bottom plates at a density of 4000 cells per well in a volume of 50 μl per well. 24 hours after seeding the 50 μl each of the compound dilutions in DMEM medium are added into each well of the 96 well plate. Each compound dilution is tested as triplicates. Wells containing untreated control cells are filled with 50 μl DMEM medium containing 1% DMSO. The cells are then incubated with the substances for 72 hours at 37° C. in a humidified atmosphere containing 5% carbon dioxide. To determine the viability of the cells, 10 μl of an Alamar Blue solution (Biosource) are added and the fluorescence is measured at an extinction of 544 nm and an emission of 590 nm. For the calculation of the cell viability the emission value from untreated cells is set as 100% viability and the emission rates of treated cells are set in relation to the values of untreated cells. Viabilities are expressed as % values. The Graphpad Prism program (GraphPad Software, Inc) is used for the calculation of EC50 values for anti-proliferative/cytotoxic activity out of the obtained dose-response curves.
Each compound dilution is tested as triplicates. Wells containing untreated control cells are filled with 50 μl DMEM medium containing 1% DMSO. The cells are then incubated with the substances for 72 hours at 37° C. in a humidified atmosphere containing 5% carbon dioxide. To determine the viability of the cells, 10 μl of an Alamar Blue solution (Biosource) are added and the fluorescence is measured at an extinction of 544 nm and an emission of 590 nm. For the calculation of the cell viability the emission value from untreated cells is set as 100% viability and the emission rates of treated cells are set in relation to the values of untreated cells. Viabilities are expressed as % values. The Graphpad Prism program is used for the calculation of EC50 values out of the obtained dose-response curves. Viability is compared of proliferating cells grown in the absence of the inducer Ponasterone A, versus viability of cells arrested by the expression of ectopic p27Kip1 induced by Ponasterone A.

For the molecule `CN(CCCN1CCC1)C(=O)N1N=C2c3cc(F)ccc3OC[C@H]2[C@H]1c1ccccc1` (racemic) [Example 38, (3SR,3aSR)-8-Fluoro-3-phenyl-3a,4-dihydro-3H-chromeno[4,3-c]pyrazole-2-carboxylic acid (3-azetidin-1-yl-propyl)-methyl-amide], the EC50 was not above 100 nM.

Consider `CCN(CCN(C)C)C(=O)N1N=C2c3cc(F)ccc3OC[C@@H]2[C@@H]1c1ccccc1` (racemic) [Example 10, (3RS,3aRS)-8-Fluoro-3-phenyl-3a,4-dihydro-3H-chromeno[4,3-c]pyrazole-2-carboxylic acid (2-dimethylamino-ethyl)-ethyl-amide], for which the EC50 was not above 100 nM.

`CN(CCN1CCCC1)C(=O)N1N=C2c3cc(F)ccc3OC[C@@H]2[C@@H]1c1ccccc1` (racemic) [Example 28, (3RS,3aRS)-8-Fluoro-3-phenyl-3a,4-dihydro-3H-chromeno[4,3-c]pyrazole-2-carboxylic acid methyl-(2-pyrrolidin-1-yl-ethyl)-amide]: the EC50 is 100 to 1000 nM.

Regarding `CN(C)C(=O)N1N=C2c3cc(F)ccc3OC[C@@H]2[C@@H]1c1cccc(O)c1` (racemic) [Example 2, (3RS,3aRS)-8-Fluoro-3-(3-hydroxy-phenyl)-3a,4-dihydro-3H-chromeno[4,3-c]pyrazole-2-carboxylic acid dimethylamide], the EC50 was 100 to 1000 nM.

As to `CN1CCC(N(C(=O)N2NC3c4cc(F)ccc4OC[C@H]3[C@@H]2c2ccccc2)C2CC2)CC1` (mixture of isomers) [Example 15, (3RS,3aRS)-8-Fluoro-3-phenyl-1,3a,4,9b-tetrahydro-3H-chromeno[4,3-c]pyrazole-2-carboxylic acid cyclopropyl-(1-methyl-piperidin-4-yl)-amide], the EC50 is not above 100 nM.

As to `CN1CCC(N(C)C(=O)N2N=C3c4cc(F)ccc4OC[C@@H]3[C@@H]2c2cccc(O)c2)CC1` (single isomer, unassigned) [Example 3, (3RS,3aRS)-8-Fluoro-3-(3-hydroxy-phenyl)-3a,4-dihydro-3H-chromeno[4,3-c]pyrazole-2-carboxylic acid methyl-(1-methyl-piperidin-4-yl)-amide], the EC50 was not above 100 nM.

Take `CN(C)C(=O)N1N=C2c3cc(F)ccc3OC[C@H]2[C@@H]1c1cccc(O)c1` (racemic) [Example 1, (3RS,3aSR)-8-Fluoro-3-(3-hydroxy-phenyl)-3a,4-dihydro-3H-chromeno[4,3-c]pyrazole-2-carboxylic acid dimethylamide]: the EC50 was 100 to 1000 nM.

Take `CCN(CCCN(C)C(=O)N1N=C2c3cc(F)ccc3OC[C@H]2[C@H]1c1ccccc1)CCOC` (racemic) [Example 56, (3SR,3aSR)-8-Fluoro-3-phenyl-3a,4-dihydro-3H-chromeno[4,3-c]pyrazole-2-carboxylic acid {3-[ethyl-(2-methoxy-ethyl)-amino]-propyl}-methyl-amide]: the EC50 was 100 to 1000 nM.

Consider `COCCNCCN(C)C(=O)N1N=C2c3cc(F)ccc3OC[C@H]2[C@H]1c1ccccc1` (racemic) [Example 47, (3SR,3aSR)-8-Fluoro-3-phenyl-3a,4-dihydro-3H-chromeno[4,3-c]pyrazole-2-carboxylic acid [2-(2-methoxy-ethylamino)-ethyl]-methyl-amide], for which the EC50 is 100 to 1000 nM.

For `CCN(CCO)CCN(C)C(=O)N1N=C2c3cc(F)ccc3OC[C@@H]2[C@@H]1c1ccccc1` (racemic) [Example 58, (3RS,3aRS)-8-Fluoro-3-phenyl-3a,4-dihydro-3H-chromeno[4,3-c]pyrazole-2-carboxylic acid {2-[ethyl-(2-hydroxy-ethyl)-amino]-ethyl}-methyl-amide], the EC50 was not above 100 nM.

In the case of `CN(C(=O)N1N=C2c3cc(F)ccc3OC[C@@H]2[C@@H]1c1cccc(O)c1)C1CCNCC1` (racemic) [Example 27, (3RS,3aRS)-8-Fluoro-3-(3-hydroxy-phenyl)-3a,4-dihydro-3H-chromeno[4,3-c]pyrazole-2-carboxylic acid methyl-piperidin-4-yl-amide], the EC50 was not above 100 nM.

For `COCCNCCCN(C)C(=O)N1N=C2c3cc(F)ccc3OC[C@H]2[C@H]1c1ccccc1` (racemic) [Example 48, (3SR,3aSR)-8-Fluoro-3-phenyl-3a,4-dihydro-3H-chromeno[4,3-c]pyrazole-2-carboxylic acid [3-(2-methoxy-ethylamino)-propyl]-methyl-amide], the EC50 was not above 100 nM.

Take `CC(C)NCCN(C)C(=O)N1N=C2c3cc(F)ccc3OC[C@H]2[C@H]1c1ccccc1` (racemic) [Example 39, (3SR,3aSR)-8-Fluoro-3-phenyl-3a,4-dihydro-3H-chromeno[4,3-c]pyrazole-2-carboxylic acid (2-isopropylamino-ethyl)-methyl-amide]: the EC50 was not above 100 nM.

For the molecule `CN(CCCNCC1CC1)C(=O)N1N=C2c3cc(F)ccc3OC[C@H]2[C@H]1c1ccccc1` (racemic) [Example 54, (3SR,3aSR)-8-Fluoro-3-phenyl-3a,4-dihydro-3H-chromeno[4,3-c]pyrazole-2-carboxylic acid [3-(cyclopropylmethyl-amino)-propyl]-methyl-amide], the EC50 was 100 to 1000 nM.

Consider `C=CCN(C)CCN(C)C(=O)N1N=C2c3cc(F)ccc3OC[C@H]2[C@H]1c1ccccc1` (racemic) [Example 63, (3SR,3aSR)-8-Fluoro-3-phenyl-3a,4-dihydro-3H-chromeno[4,3-c]pyrazole-2-carboxylic acid [2-(allyl-methyl-amino)-ethyl]-methyl-amide], for which the EC50 was 100 to 1000 nM.

Turning to `CN(C)CCN(C)C(=O)N1N=C2c3cc(F)ccc3OC[C@@H]2[C@@H]1c1cccc(O)c1` (racemic) [Example 4, (3RS,3aRS)-8-Fluoro-3-(3-hydroxy-phenyl)-3a,4-dihydro-3H-chromeno[4,3-c]pyrazole-2-carboxylic acid (2-dimethylamino-ethyl)-methyl-amide], the EC50 was not above 100 nM.

On to `CC(C)CNCCCN(C)C(=O)N1N=C2c3cc(F)ccc3OC[C@H]2[C@H]1c1ccccc1` (racemic) [Example 42, (3SR,3aSR)-8-Fluoro-3-phenyl-3a,4-dihydro-3H-chromeno[4,3-c]pyrazole-2-carboxylic acid (3-isobutylamino-propyl)-methyl-amide], for which the EC50 was 100 to 1000 nM.

For the molecule `CN1CCC(N(C)C(=O)N2N=C3c4cc(F)ccc4OC[C@@H]3[C@@H]2c2ccccc2)CC1` (racemic) [Example 9, (3RS,3aRS)-8-Fluoro-3-phenyl-3a,4-dihydro-3H-chromeno[4,3-c]pyrazole-2-carboxylic acid methyl-(1-methyl-piperidin-4-yl)-amide], the EC50 is not above 100 nM.

Take `CN(CCCNC(C)(C)C)C(=O)N1N=C2c3cc(F)ccc3OC[C@H]2[C@H]1c1ccccc1` (racemic) [Example 43, (3SR,3aSR)-8-Fluoro-3-phenyl-3a,4-dihydro-3H-chromeno[4,3-c]pyrazole-2-carboxylic acid (3-tert-butylamino-propyl)-methyl-amide]: the EC50 is 100 to 1000 nM.

For `CCN(C)CCCN(C)C(=O)N1N=C2c3cc(F)ccc3OC[C@H]2[C@H]1c1ccccc1` (racemic) [Example 55, (3SR,3aSR)-8-Fluoro-3-phenyl-3a,4-dihydro-3H-chromeno[4,3-c]pyrazole-2-carboxylic acid [3-(ethyl-methyl-amino)-propyl]-methyl-amide], the EC50 is not above 100 nM.

As for `C=CCNCCN(C)C(=O)N1N=C2c3cc(F)ccc3OC[C@H]2[C@H]1c1ccccc1` (racemic) [Example 51, (3SR,3aSR)-8-Fluoro-3-phenyl-3a,4-dihydro-3H-chromeno[4,3-c]pyrazole-2-carboxylic acid (2-allylamino-ethyl)-methyl-amide], the EC50 was 100 to 1000 nM.

In the case of `C#CCN(C)CCN(C)C(=O)N1N=C2c3cc(F)ccc3OC[C@H]2[C@H]1c1ccccc1` (racemic) [Example 64, (3SR,3aSR)-8-Fluoro-3-phenyl-3a,4-dihydro-3H-chromeno[4,3-c]pyrazole-2-carboxylic acid methyl-[2-(methyl-prop-2-ynyl-amino)-ethyl]-amide], the EC50 was 100 to 1000 nM.

`CN(C(=O)N1N=C2c3cc(F)ccc3OC[C@H]2[C@H]1c1cccc(O)c1)C1CCNCC1` [Example 27a, (3S,3aS)-8-Fluoro-3-(3-hydroxy-phenyl)-3a,4-dihydro-3H-chromeno[4,3-c]pyrazole-2-carboxylic acid methyl-piperidin-4-yl-amide]: the EC50 is not above 100 nM.

In the case of `CN(CCN1CCCCC1)C(=O)N1N=C2c3cc(F)ccc3OC[C@H]2[C@H]1c1ccccc1` (racemic) [Example 36, (3SR,3aSR)-8-Fluoro-3-phenyl-3a,4-dihydro-3H-chromeno[4,3-c]pyrazole-2-carboxylic acid methyl-(2-piperidin-1-yl-ethyl)-amide], the EC50 was 100 to 1000 nM.

`CN(CCNC1CCC1)C(=O)N1N=C2c3cc(F)ccc3OC[C@H]2[C@H]1c1ccccc1` (racemic) [Example 44, (3SR,3aSR)-8-Fluoro-3-phenyl-3a,4-dihydro-3H-chromeno[4,3-c]pyrazole-2-carboxylic acid (2-cyclobutylamino-ethyl)-methyl-amide]: the EC50 is not above 100 nM.

Turning to `CN(CCCN)C(=O)N1N=C2c3cc(F)ccc3OC[C@@H]2[C@@H]1c1ccccc1` (racemic) [Example 20, (3RS,3aRS)-8-Fluoro-3-phenyl-3a,4-dihydro-3H-chromeno[4,3-c]pyrazole-2-carboxylic acid (3-amino-propyl)-methyl-amide], the EC50 is 100 to 1000 nM.

On to `CCN(CCOC)CCN(C)C(=O)N1N=C2c3cc(F)ccc3OC[C@H]2[C@H]1c1ccccc1` (racemic) [Example 57, (3SR,3aSR)-8-Fluoro-3-phenyl-3a,4-dihydro-3H-chromeno[4,3-c]pyrazole-2-carboxylic acid {2-[ethyl-(2-methoxy-ethyl)-amino]-ethyl}-methyl-amide], for which the EC50 is 100 to 1000 nM.

For the molecule `CN(CCCN1CCCC1)C(=O)N1N=C2c3cc(F)ccc3OC[C@H]2[C@H]1c1ccccc1` (racemic) [Example 34, (3SR,3aSR)-8-Fluoro-3-phenyl-3a,4-dihydro-3H-chromeno[4,3-c]pyrazole-2-carboxylic acid methyl-(3-pyrrolidin-1-yl-propyl)-amide], the EC50 is not above 100 nM.

Values taken from patent US20100104659A1, “BENZOPYRANOPYRAZOLES” (priority 2006, published 2010).
